Data published in patent publication US11503826B2, “Low volatility auxin herbicide formulations” (priority 2009, dated 2022).
Where a name gives a salt, the structure may show the parent alone.

Columns and labels:
[1] = Distillation volatility: dicamba in distillate by HPLC/MS; assay type: physicochemical; conditions: for ppm Dicamba in distillate: Table 4h summary, 5% a.e. salt solution
Procedure: The pH was measured on a standard Orion Model 320 pH meter of each neat solution.
Simple distillation using a short path still was used to collect the water distillate containing the dicamba in the vapor phase of the salt solutions. A 50 mL distillation flask was used. The distillation receiver was a “cow” type with four 2 mL graduated sections. The solutions were heated at the 30% setting of the GlassCol heating unit and the boiling point of each distillation was noted. The first 2 ml of distillate was collected, and the receiver rotated to avoid collection of any further distillate in that section as the distillation flask cooled. The 2 mL sample was quantitatively transferred by pipette to HPLC vials for later analysis. Between each distillation the distillation apparatus was washed with 10 volumes of tap water, 10 volumes of distilled water, rinsed with acetone, and dried in a 60° C. oven. Each distillation was run in triplicate.
The distillate was collected and analyzed for dicamba concentration using HPLC/Mass Spectroscopy (MS). The HPLC column was an Agilent Zorbax Eclipse XDB-C8, 4.6×150 mm, 5u, PN 993967-90. Mobile phase A was 0.1% formic acid in D.I. water. Mobile phase B was 0.1% formic acid in acetonitrile. A flow rate of 1.2 mL/min was used and an injection volume of 5, 10, 15 or 25 ul was used depending on the dicamba level in the sample. The following gradient was used: […]
The MS parameters were as follows: Type SIR; ES-ion mode; 0.05 second inter channel delay; 0.05 second interscan time; 0.5 span (Da); 10 minutes elapsed time; and 6-6000 ppb calibration range. […] Channel 2 mass was 177 (Da); Dwell was 0.25(s); Cone(V)=tune and; 0.05(s) delay.

[2] = Aqueous solubility of dicamba acid and dicamba salts; conditions: for solubility 20° C. a.e. / solubility 20° C. a.i. / Comments (crystal formation) / solubility 0° C. a.e. / solubility 0° C. a.i.: Table 10a; for solubility 20° C. a.e. / solubility 20° C. a.i. / solubility 0° C. a.e. / solubility 0° C. a.i.: dicamba salt; for solubility 20° C. a.e. / solubility 20° C. a.i.: equilibrated 5 to 7 days at 20° C.; for solubility 20° C. a.e.: 0.45 micron filter, HPLC; for solubility 20° C. a.e. / solubility 0° C. a.e.: acid equivalent; for solubility 20° C. a.i. / solubility 0° C. a.i.: active ingredient; for aqueous solubility wt % a.i. @20° C.: dicamba salts; for Comments (crystal formation): dicamba salt solutions; for solubility 0° C. a.e. / solubility 0° C. a.i.: equilibrated 5 to 7 days at 0° C.
Description: The solution was then passed through a 0.45 micron filter and assayed by HPLC for soluble dicamba.

[3] = Tank mix compatibility of dicamba salts with potassium glyphosate; assay type: physicochemical; conditions: for Comment: dicamba salt solution added to […] Roundup POWERMAX solution; for g to crystals: grams dicamba a.e. (35.8% a.e. salt solution) added to […] Roundup POWERMAX solution to induce crystallization or precipitation
Description: The weight of the dicamba solution that caused precipitation was noted. The results are reported in Table 12a below where “salt” refers to the dicamba salt and “g to crystals” refers to the total amount of grams of dicamba a.e. that were required to induce crystallization or precipitation of crystals.

[4] = assay type: physicochemical; conditions: 5 mL sample, air pulled through tube over PUF approximately 1 day; wt % a.e.: salts 35.8, BANVEL 40, acid 99
Procedure: In a further set of experiments, measurements of dicamba concentration in the gas phase (air) above 38.5 wt % a.e. solutions of various dicamba salts was measured. 5 mL of each sample of dicamba was placed into a 50 mL plastic centrifuge tube with four holes approximately ⅛ in diameter drilled into the tube at the 10 mL line. A 22 mm×30 mm PUF (SKC ct. #226-124) was placed into a glass tube of app. 20 mm diameter with parafilm wrapped around the outside to obtain a snug fit into the top of the centrifuge tube. A hose was connected to the other end of the glass tube leading to a vacuum line. The air flow was regulated to app. 2 L/min using a flow controller (about 0.4 L air/min-mL sample). Air was pulled through the tube at […] for approximately 1 day. Note that the air conditions of flow rate, temperature, pressure and composition (e.g., relative humidity) are not narrowly critical as long as the various samples are analyzed under similar conditions. For instance, air at from about 5° C. to about 40° C., from about 0.5 to about 1.5 bar pressure, from about 0% to about 95% relative humidity, and at a flow rate of from about 0.1 to 10 L/min-mL sample could be suitably used for volatility analysis. The PUF was removed from the glass tube, extracted with 20 mL methanol and the resulting solution analyzed for dicamba concentration by LC-MS. The results are shown in Table 4i below where “wt % a.e.” refers to the dicamba concentration, “μg/mL” refers to the dicamba concentration in the distillate, “μg dicamba” refers to the total dicamba extracted from the PUF by 20 mL methanol, and “ng/L air” and “moles/L air” refer to the dicamba concentration in the gas phase above the solution.

SMILES: NCCO [MEA]
- ppm Dicamba in distillate ([1]; pH 6.87): 0.5 ppm
- ppm Dicamba in distillate ([1]; pH 8.03): 0.3 ppm
- solubility 20° C. a.e. [2]: >71.9 wt %
- solubility 20° C. a.i. [2]: >91.8 wt %
- Comment [3]: Clear solution, no precipitate
- g to crystals [3]: >34.2 g

SMILES: COc1c(Cl)ccc(Cl)c1C(=O)O [Dicamba acid, 3,6-dichloro-2-methoxybenzoic acid]
- dicamba [4]: 15.3 µg/mL
- dicamba concentration in gas phase, moles/L air [4]: 1.92 × 10^−10 moles/L air
- dicamba concentration in gas phase, ng/L air [4]: 42.4 ng/L air
- μg dicamba [4]: 305.4 µg
- aqueous solubility Approximate g a.e./L @20° C. ([2]; listed as acid): 4.5 g a.e./L
- aqueous solubility wt % a.e. @20° C. ([2]; listed as acid): 0.4 wt % a.e.
- aqueous solubility wt % a.e. @20° C. ([2]; Table 10b, second experiment, dicamba acid and salts, listed as acid): 0.4 wt % a.e.

SMILES: COc1c(Cl)ccc(Cl)c1C(=O)O.NCCOCCO [Dicamba DGA salt, reference compound]
- aqueous solubility Approximate g a.e./L @20° C. [2]: 700 g a.e./L
- aqueous solubility wt % a.e. @20° C. [2]: 56.5 wt % a.e.
- aqueous solubility wt % a.e. @20° C. ([2]; Table 10b, second experiment, dicamba acid and salts): 56.5 wt % a.e.
- aqueous solubility wt % a.i. @20° C. ([2]; Table 10b, second experiment): 83.4 wt % a.i.
- crystal formation from concentrated salt solution ([2]; solubility experiment, Example 10): several weeks

SMILES: NCCOCCO [DGA]
- Mean Dicamba in Distillate ([1]; 1% a.e. dicamba, solution pH 4.23): 0.46 ppm
- Mean Dicamba in Distillate ([1]; 1% a.e. dicamba, solution pH 6.48): 0.18 ppm
- Mean Dicamba in Distillate ([1]; 1% a.e. dicamba, solution pH 8.24): 0.13 ppm
- Mean Dicamba in Distillate ([1]; 1% a.e. dicamba, solution pH 8.88): 0.12 ppm
- Mean Dicamba in Distillate ([1]; 2% a.e. dicamba, solution pH 4.17): 1.10 ppm
- Mean Dicamba in Distillate ([1]; 2% a.e. dicamba, solution pH 6.44): 0.31 ppm
- Mean Dicamba in Distillate ([1]; 2% a.e. dicamba, solution pH 8.22): 0.28 ppm
- Mean Dicamba in Distillate ([1]; 2% a.e. dicamba, solution pH 8.92): 0.19 ppm
- Mean Dicamba in Distillate ([1]; 5% a.e. dicamba, solution pH 4.57): 2.11 ppm
- Mean Dicamba in Distillate ([1]; 5% a.e. dicamba, solution pH 6.35): 0.75 ppm
- Mean Dicamba in Distillate ([1]; 5% a.e. dicamba, solution pH 8.26): 0.58 ppm
- Mean Dicamba in Distillate ([1]; 5% a.e. dicamba, solution pH 9.03): 0.32 ppm
- ppm Dicamba in distillate ([1]; pH 6.35): 0.8 ppm
- ppm Dicamba in distillate ([1]; pH 8.26): 0.6 ppm
- Comments (crystal formation) [2]: Crystals formed slowly
- solubility 20° C. a.e. [2]: <50 wt %
- Comment [3]: CLARITY-clear solution with no
- g to crystals [3]: >17 g

SMILES: COc1c(Cl)ccc(Cl)c1C(=O)O [Dicamba potassium salt]
- ppm Dicamba in distillate ([1]; pH 7.06): 0.6 ppm
- aqueous solubility Approximate g a.e./L @20° C. ([2]; listed as potassium dicamba): 720 g a.e./L
- aqueous solubility wt % a.e. @20° C. ([2]; listed as potassium dicamba): 54.6 wt % a.e.
- Comments (crystal formation) ([2]; listed as K): Crystals form on
- solubility 0° C. a.e. ([2]; listed as K): 52.7 wt %
- solubility 0° C. a.i. ([2]; listed as K): 61.8 wt %
- solubility 20° C. a.e. ([2]; listed as K): 54.6 wt %
- solubility 20° C. a.i. ([2]; listed as K): 64 wt %
- aqueous solubility wt % a.e. @20° C. ([2]; Table 10b, second experiment, dicamba acid and salts, listed as potassium salt): 54.6 wt % a.e.
- aqueous solubility wt % a.i. @20° C. ([2]; Table 10b, second experiment, listed as potassium salt): 64 wt % a.i.

SMILES: NCCCCCCN [HMDA]
- Comments (crystal formation) [2]: Pasty solid
- solubility 0° C. a.e. [2]: 11.2 wt %
- solubility 0° C. a.i. [2]: 14.1 wt %
- solubility 20° C. a.e. [2]: 14.1 wt %
- solubility 20° C. a.i. [2]: 17.8 wt %

SMILES: CNC [DMA]
- Mean Dicamba in Distillate ([1]; 1% a.e. dicamba, solution pH 3.25): 4.50 ppm
- Mean Dicamba in Distillate ([1]; 1% a.e. dicamba, solution pH 4.36): 0.57 ppm
- Mean Dicamba in Distillate ([1]; 1% a.e. dicamba, solution pH 6.11): 0.30 ppm
- Mean Dicamba in Distillate ([1]; 1% a.e. dicamba, solution pH 8.53): 0.73 ppm
- Mean Dicamba in Distillate ([1]; 1% a.e. dicamba, solution pH 10.12): 1.32 ppm
- Mean Dicamba in Distillate ([1]; 2% a.e. dicamba, solution pH 3.20): 9.19 ppm
- Mean Dicamba in Distillate ([1]; 2% a.e. dicamba, solution pH 4.25): 1.08 ppm
- Mean Dicamba in Distillate ([1]; 2% a.e. dicamba, solution pH 5.97): 0.83 ppm
- Mean Dicamba in Distillate ([1]; 2% a.e. dicamba, solution pH 8.66): 1.98 ppm
- Mean Dicamba in Distillate ([1]; 2% a.e. dicamba, solution pH 10.24): 4.88 ppm
- Mean Dicamba in Distillate ([1]; 5% a.e. dicamba, solution pH 3.18): 20.10 ppm
- Mean Dicamba in Distillate ([1]; 5% a.e. dicamba, solution pH 4.22): 2.67 ppm
- Mean Dicamba in Distillate ([1]; 5% a.e. dicamba, solution pH 5.58): 2.06 ppm
- Mean Dicamba in Distillate ([1]; 5% a.e. dicamba, solution pH 8.69): 8.43 ppm
- Mean Dicamba in Distillate ([1]; 5% a.e. dicamba, solution pH 10.17): 12.34 ppm
- ppm Dicamba in distillate ([1]; pH 5.58): 2.1 ppm
- ppm Dicamba in distillate ([1]; pH 8.69): 8.4 ppm

SMILES: CC(C)N [IPA]
- Mean Dicamba in Distillate ([1]; 1% a.e. dicamba, solution pH 3.41): 1.42 ppm
- Mean Dicamba in Distillate ([1]; 1% a.e. dicamba, solution pH 4.40): 0.42 ppm
- Mean Dicamba in Distillate ([1]; 1% a.e. dicamba, solution pH 5.13): 0.37 ppm
- Mean Dicamba in Distillate ([1]; 1% a.e. dicamba, solution pH 8.10): 0.72 ppm
- Mean Dicamba in Distillate ([1]; 1% a.e. dicamba, solution pH 9.13): 1.22 ppm
- Mean Dicamba in Distillate ([1]; 2% a.e. dicamba, solution pH 3.37): 3.65 ppm
- Mean Dicamba in Distillate ([1]; 2% a.e. dicamba, solution pH 4.36): 1.42 ppm
- Mean Dicamba in Distillate ([1]; 2% a.e. dicamba, solution pH 5.10): 0.94 ppm
- Mean Dicamba in Distillate ([1]; 2% a.e. dicamba, solution pH 8.13): 0.75 ppm
- Mean Dicamba in Distillate ([1]; 2% a.e. dicamba, solution pH 9.20): 3.43 ppm
- Mean Dicamba in Distillate ([1]; 5% a.e. dicamba, solution pH 3.44): 5.85 ppm
- Mean Dicamba in Distillate ([1]; 5% a.e. dicamba, solution pH 4.33): 3.14 ppm
- Mean Dicamba in Distillate ([1]; 5% a.e. dicamba, solution pH 4.94): 3.77 ppm
- Mean Dicamba in Distillate ([1]; 5% a.e. dicamba, solution pH 8.24): 2.47 ppm
- Mean Dicamba in Distillate ([1]; 5% a.e. dicamba, solution pH 9.28): 12.57 ppm
- ppm Dicamba in distillate ([1]; pH 8.24): 2.5 ppm
